# Experiments:
# Experiment in all cases: KAM-matrix competition in K562 lysate;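 as to 0.001 uM KAM: median log10 fold change of treatment over DMSO control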;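 as to 0.01 uM KAM: median log10 fold change of treatment over DMSO control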;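 as to 0.1 uM KAM: median log10 fold change of treatment over DMSO control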;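 as to 1 uM KAM: median log10 fold change of treatment over DMSO control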;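 as to 10 uM KAM: median log10 fold change of treatment over DMSO control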
# Assay type in all cases: binding
# MAPKAPK5 = target: T1, MAPKAPK5 (Homo sapiens, UniProt Q8IW41)
# T1 construct: endogenous in cells; host or cells: K562
# T1 sequence (Q8IW41 1-473): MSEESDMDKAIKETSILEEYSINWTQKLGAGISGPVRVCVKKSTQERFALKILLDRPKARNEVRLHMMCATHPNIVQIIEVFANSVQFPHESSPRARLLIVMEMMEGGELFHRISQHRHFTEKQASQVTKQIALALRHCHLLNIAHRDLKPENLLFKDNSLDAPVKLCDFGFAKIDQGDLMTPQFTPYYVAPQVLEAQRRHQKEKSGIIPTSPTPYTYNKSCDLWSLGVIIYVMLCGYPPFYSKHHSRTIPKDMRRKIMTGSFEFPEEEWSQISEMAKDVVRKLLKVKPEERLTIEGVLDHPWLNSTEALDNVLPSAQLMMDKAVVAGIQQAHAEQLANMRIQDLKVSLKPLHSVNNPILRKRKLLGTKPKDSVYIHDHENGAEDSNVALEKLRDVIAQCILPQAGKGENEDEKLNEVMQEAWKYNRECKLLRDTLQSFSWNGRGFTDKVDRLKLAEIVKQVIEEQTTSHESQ
# Experimental: (§1) Supplement 12953_2017_125_MOESM1_ESM.zip/MS_Supp Info.xlsx, sheet "KAM" | column: 10 uM KAM; 1 uM KAM; 0.1 uM KAM; 0.01 uM KAM; 0.001 uM KAM; RB50
# PRKCB = target: T2, PRKCB (Homo sapiens, UniProt P05771)
# T2 construct: endogenous in cells; host or cells: K562
# Experimental: as §1
# CDK10 = target: T3, CDK10 (Homo sapiens, UniProt Q15131)
# T3 construct: endogenous in cells; host or cells: K562
# Experimental: as §1
# ROCK1 = target: T4, ROCK1 (Homo sapiens, UniProt Q13464);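 as to 0.001 uM KAM: median log10 fold change of treatment over DMSO control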;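 as to 0.01 uM KAM: median log10 fold change of treatment over DMSO control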;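 as to 0.1 uM KAM: median log10 fold change of treatment over DMSO control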;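 as to 1 uM KAM: median log10 fold change of treatment over DMSO control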;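 as to 10 uM KAM: median log10 fold change of treatment over DMSO control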
# T4 construct: endogenous in cells; host or cells: K562
# Experimental: as §1
# BUB1B = target: T5, BUB1B (Homo sapiens, UniProt O60566);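 as to 0.001 uM KAM: median log10 fold change of treatment over DMSO control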;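 as to 0.01 uM KAM: median log10 fold change of treatment over DMSO control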;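 as to 0.1 uM KAM: median log10 fold change of treatment over DMSO control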;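 as to 1 uM KAM: median log10 fold change of treatment over DMSO control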;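 as to 10 uM KAM: median log10 fold change of treatment over DMSO control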
# T5 construct: endogenous in cells; host or cells: K562
# Experimental: as §1
# EIF2AK4 = target: T6, EIF2AK4 (Homo sapiens, UniProt Q9P2K8);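 as to 0.001 uM KAM: median log10 fold change of treatment over DMSO control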;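 as to 0.01 uM KAM: median log10 fold change of treatment over DMSO control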;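 as to 0.1 uM KAM: median log10 fold change of treatment over DMSO control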;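 as to 1 uM KAM: median log10 fold change of treatment over DMSO control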;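 as to 10 uM KAM: median log10 fold change of treatment over DMSO control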
# T6 construct: endogenous in cells; host or cells: K562
# Experimental: as §1
# FAM20B = target: T7, FAM20B (Homo sapiens, UniProt O75063);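 as to 0.001 uM KAM: median log10 fold change of treatment over DMSO control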;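 as to 0.01 uM KAM: median log10 fold change of treatment over DMSO control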;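 as to 0.1 uM KAM: median log10 fold change of treatment over DMSO control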;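 as to 1 uM KAM: median log10 fold change of treatment over DMSO control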;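 as to 10 uM KAM: median log10 fold change of treatment over DMSO control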
# T7 construct: endogenous in cells; host or cells: K562
# T7 sequence (O75063 1-409): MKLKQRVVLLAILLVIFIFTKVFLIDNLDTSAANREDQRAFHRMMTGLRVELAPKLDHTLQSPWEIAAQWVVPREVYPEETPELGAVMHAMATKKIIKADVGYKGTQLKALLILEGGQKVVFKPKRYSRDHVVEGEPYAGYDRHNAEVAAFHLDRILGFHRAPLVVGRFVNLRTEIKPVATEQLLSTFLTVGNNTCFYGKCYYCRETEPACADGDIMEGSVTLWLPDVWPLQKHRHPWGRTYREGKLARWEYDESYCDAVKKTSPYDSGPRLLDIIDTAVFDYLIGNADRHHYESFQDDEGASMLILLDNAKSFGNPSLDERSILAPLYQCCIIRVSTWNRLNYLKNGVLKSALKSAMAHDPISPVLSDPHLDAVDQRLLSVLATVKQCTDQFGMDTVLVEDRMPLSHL
# Experimental: as §1
# [1] = read-out: RB50 (the source's name)
# [2] = KAM 0.001-10 uM, read-out: RB50 (the source's name)
# T3 sequence (Q15131 whole entry): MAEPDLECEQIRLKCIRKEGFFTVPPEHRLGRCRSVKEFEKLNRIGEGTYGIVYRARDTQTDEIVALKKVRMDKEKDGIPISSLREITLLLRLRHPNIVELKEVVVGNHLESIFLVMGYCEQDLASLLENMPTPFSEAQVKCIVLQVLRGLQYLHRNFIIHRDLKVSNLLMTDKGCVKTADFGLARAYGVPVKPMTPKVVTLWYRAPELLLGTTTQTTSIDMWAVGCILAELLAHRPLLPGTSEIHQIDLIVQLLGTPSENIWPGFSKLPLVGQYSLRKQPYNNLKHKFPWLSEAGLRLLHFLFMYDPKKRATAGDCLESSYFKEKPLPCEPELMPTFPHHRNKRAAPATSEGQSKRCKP
# T4 sequence (Q13464 whole entry): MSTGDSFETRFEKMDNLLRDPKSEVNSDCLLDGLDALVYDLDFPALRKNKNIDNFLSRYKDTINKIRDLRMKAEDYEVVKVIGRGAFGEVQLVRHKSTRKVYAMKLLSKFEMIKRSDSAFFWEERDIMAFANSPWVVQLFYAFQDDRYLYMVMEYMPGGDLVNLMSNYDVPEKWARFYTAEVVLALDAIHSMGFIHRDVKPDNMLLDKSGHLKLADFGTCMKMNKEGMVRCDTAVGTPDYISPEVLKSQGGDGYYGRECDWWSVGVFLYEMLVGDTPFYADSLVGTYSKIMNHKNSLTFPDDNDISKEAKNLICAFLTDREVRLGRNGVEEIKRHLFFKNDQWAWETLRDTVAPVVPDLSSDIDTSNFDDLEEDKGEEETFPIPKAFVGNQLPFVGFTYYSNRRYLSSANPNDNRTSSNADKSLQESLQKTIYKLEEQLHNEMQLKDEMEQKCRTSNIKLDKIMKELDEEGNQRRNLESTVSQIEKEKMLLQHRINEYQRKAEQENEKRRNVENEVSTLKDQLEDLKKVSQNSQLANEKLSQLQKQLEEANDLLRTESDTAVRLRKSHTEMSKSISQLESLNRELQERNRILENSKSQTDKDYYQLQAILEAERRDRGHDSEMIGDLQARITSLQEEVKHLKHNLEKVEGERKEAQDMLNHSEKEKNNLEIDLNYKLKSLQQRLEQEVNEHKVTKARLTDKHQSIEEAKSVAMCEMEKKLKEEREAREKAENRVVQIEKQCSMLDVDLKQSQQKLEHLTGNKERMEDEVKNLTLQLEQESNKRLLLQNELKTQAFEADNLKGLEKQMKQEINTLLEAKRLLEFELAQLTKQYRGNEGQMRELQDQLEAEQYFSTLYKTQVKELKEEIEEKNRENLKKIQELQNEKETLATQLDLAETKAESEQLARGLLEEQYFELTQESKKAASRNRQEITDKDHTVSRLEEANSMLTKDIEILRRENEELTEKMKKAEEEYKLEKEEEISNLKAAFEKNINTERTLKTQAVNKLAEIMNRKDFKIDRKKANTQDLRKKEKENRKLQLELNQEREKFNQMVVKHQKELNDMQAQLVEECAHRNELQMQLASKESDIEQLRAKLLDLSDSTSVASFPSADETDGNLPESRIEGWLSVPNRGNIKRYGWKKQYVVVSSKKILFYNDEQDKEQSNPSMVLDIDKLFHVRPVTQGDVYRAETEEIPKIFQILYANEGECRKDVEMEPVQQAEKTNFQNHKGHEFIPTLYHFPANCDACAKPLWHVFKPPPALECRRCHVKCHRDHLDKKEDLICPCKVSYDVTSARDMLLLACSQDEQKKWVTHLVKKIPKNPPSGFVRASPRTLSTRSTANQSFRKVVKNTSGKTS
# T5 sequence (O60566 whole entry): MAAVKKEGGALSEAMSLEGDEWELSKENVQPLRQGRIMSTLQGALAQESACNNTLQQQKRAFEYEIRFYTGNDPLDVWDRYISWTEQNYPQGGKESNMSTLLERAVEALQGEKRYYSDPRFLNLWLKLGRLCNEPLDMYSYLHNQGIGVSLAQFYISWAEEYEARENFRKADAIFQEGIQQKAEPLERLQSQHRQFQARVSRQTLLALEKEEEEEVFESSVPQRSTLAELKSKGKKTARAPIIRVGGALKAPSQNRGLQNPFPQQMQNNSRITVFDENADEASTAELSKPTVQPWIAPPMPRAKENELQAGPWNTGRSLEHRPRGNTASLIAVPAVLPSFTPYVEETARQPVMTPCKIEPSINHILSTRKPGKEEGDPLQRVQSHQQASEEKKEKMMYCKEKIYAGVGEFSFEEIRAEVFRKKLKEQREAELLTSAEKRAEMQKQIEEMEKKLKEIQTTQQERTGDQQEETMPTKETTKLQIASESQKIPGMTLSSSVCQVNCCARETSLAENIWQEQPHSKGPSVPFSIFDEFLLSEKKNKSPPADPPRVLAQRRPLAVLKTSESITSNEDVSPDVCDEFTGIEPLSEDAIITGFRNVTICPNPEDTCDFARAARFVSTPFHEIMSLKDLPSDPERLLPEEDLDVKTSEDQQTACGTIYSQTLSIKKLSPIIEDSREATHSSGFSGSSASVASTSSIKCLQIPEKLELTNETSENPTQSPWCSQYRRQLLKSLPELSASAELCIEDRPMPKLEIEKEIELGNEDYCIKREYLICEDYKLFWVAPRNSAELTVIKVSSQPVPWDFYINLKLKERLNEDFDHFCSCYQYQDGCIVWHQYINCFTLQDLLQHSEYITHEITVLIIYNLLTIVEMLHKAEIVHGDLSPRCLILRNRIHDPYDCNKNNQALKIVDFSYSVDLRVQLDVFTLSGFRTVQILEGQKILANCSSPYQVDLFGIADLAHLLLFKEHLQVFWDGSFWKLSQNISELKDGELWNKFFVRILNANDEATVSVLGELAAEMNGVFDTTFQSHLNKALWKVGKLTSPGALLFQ
# T2 sequence (P05771 whole entry): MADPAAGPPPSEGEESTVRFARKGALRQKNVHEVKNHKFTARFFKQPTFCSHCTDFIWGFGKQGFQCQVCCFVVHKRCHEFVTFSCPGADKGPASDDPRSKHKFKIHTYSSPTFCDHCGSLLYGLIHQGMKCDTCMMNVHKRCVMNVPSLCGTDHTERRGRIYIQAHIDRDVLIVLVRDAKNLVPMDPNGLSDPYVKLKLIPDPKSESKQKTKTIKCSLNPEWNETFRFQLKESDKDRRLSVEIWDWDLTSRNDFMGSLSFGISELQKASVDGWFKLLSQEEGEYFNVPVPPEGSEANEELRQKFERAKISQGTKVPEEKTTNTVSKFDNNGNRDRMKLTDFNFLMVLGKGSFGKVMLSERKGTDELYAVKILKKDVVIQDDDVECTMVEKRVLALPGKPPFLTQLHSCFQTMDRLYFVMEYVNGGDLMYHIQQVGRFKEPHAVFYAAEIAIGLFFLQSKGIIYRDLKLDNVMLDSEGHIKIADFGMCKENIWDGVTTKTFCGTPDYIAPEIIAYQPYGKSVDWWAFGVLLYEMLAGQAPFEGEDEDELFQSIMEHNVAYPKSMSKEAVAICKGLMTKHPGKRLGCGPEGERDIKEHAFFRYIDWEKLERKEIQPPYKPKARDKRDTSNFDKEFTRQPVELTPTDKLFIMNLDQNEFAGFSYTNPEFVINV
# T6 sequence (Q9P2K8 whole entry): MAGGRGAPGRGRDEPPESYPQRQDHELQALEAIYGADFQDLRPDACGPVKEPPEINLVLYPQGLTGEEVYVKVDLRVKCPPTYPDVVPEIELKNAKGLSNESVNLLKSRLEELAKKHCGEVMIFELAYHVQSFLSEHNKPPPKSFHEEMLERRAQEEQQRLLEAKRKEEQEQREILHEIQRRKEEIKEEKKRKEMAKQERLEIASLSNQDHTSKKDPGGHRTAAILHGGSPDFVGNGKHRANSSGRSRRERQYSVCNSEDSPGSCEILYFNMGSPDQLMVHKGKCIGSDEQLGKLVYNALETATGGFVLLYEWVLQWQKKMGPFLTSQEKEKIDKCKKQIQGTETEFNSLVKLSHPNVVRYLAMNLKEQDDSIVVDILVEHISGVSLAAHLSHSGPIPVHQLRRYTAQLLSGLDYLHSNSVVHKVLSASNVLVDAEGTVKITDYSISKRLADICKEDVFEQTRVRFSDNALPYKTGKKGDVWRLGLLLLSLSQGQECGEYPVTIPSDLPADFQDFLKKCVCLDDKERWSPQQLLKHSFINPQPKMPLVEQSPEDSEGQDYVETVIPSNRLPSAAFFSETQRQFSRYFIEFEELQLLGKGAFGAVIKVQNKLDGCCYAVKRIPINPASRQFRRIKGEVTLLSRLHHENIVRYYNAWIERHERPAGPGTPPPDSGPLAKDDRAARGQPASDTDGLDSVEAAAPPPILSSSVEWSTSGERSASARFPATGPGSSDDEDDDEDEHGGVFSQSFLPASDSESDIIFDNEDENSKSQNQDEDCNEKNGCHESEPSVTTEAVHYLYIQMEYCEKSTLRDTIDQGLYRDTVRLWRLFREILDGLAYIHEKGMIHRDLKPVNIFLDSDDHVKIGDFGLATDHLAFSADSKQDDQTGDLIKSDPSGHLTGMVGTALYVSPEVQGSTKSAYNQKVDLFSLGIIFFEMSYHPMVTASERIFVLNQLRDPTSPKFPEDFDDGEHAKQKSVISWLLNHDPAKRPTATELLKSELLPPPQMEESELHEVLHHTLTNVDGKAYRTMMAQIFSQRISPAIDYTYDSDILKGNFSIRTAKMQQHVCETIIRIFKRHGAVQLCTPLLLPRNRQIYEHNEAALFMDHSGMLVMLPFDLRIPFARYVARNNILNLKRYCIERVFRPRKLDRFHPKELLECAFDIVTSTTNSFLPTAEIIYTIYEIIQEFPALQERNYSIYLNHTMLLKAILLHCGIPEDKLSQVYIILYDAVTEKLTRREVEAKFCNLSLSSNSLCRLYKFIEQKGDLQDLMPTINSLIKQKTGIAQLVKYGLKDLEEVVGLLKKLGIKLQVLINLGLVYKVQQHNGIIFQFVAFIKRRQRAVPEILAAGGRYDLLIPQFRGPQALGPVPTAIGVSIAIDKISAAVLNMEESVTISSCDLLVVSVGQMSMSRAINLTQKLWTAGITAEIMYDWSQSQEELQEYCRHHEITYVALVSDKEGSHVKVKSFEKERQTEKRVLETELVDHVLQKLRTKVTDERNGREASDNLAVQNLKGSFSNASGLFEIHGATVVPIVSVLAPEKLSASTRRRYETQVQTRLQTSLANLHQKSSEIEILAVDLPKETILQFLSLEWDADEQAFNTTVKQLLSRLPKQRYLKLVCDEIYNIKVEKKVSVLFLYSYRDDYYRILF
smiles,measurement,setting,value
N#CCc1ccc(Nc2nc(NCCCN)cc(Nc3cc(C4CC4)[nH]n3)n2)cc1 [KAM],median Log10 fold change,MAPKAPK5; 0.001 uM KAM,0.03286
same,median Log10 fold change,MAPKAPK5; 0.01 uM KAM,-0.006541
same,median Log10 fold change,MAPKAPK5; 0.1 uM KAM,-0.1605
same,median Log10 fold change,MAPKAPK5; 1 uM KAM,-0.3604
same,median Log10 fold change,MAPKAPK5; 10 uM KAM,-0.4852
same,IC50,MAPKAPK5; [1],729 nM
same,median Log10 fold change,PRKCB; 0.001 uM KAM,-0.003193
same,median Log10 fold change,PRKCB; 0.01 uM KAM,-0.01706
same,median Log10 fold change,PRKCB; 0.1 uM KAM,-0.1711
same,median Log10 fold change,PRKCB; 1 uM KAM,-0.4944
same,median Log10 fold change,PRKCB; 10 uM KAM,-0.6051
same,IC50,PRKCB; [1],354 nM
same,median Log10 fold change,CDK10; 0.001 uM KAM,0.01311
same,median Log10 fold change,CDK10; 0.01 uM KAM,-0.05132
same,median Log10 fold change,CDK10; 0.1 uM KAM,-0.3516
same,median Log10 fold change,CDK10; 1 uM KAM,-0.4253
same,median Log10 fold change,CDK10; 10 uM KAM,-0.3533
same,IC50,CDK10; [1],130 nM
same,IC50,ROCK1; [2],> 10 µM
same,0.001 uM KAM,ROCK1; relative to 0 uM KAM = 0,-0.0607
same,0.01 uM KAM,ROCK1; relative to 0 uM KAM = 0,-0.006672
same,0.1 uM KAM,ROCK1; relative to 0 uM KAM = 0,-0.08063
same,1 uM KAM,ROCK1; relative to 0 uM KAM = 0,-0.07367
same,10 uM KAM,ROCK1; relative to 0 uM KAM = 0,-0.1223
same,IC50,BUB1B; [2],> 10 µM
same,0.001 uM KAM,BUB1B; relative to 0 uM KAM = 0,-0.0187
same,0.01 uM KAM,BUB1B; relative to 0 uM KAM = 0,-0.008778
same,0.1 uM KAM,BUB1B; relative to 0 uM KAM = 0,-0.0591
same,1 uM KAM,BUB1B; relative to 0 uM KAM = 0,-0.007813
same,10 uM KAM,BUB1B; relative to 0 uM KAM = 0,-0.008689
same,IC50,EIF2AK4; [2],> 10 µM
same,0.001 uM KAM,EIF2AK4; relative to 0 uM KAM = 0,-0.0489
same,0.01 uM KAM,EIF2AK4; relative to 0 uM KAM = 0,0.01964
same,0.1 uM KAM,EIF2AK4; relative to 0 uM KAM = 0,-0.07688
same,1 uM KAM,EIF2AK4; relative to 0 uM KAM = 0,-0.1098
same,10 uM KAM,EIF2AK4; relative to 0 uM KAM = 0,-0.203
same,IC50,FAM20B; [2],> 10 µM
same,0.001 uM KAM,FAM20B; relative to 0 uM KAM = 0,-0.03245
same,0.01 uM KAM,FAM20B; relative to 0 uM KAM = 0,-0.03308
same,0.1 uM KAM,FAM20B; relative to 0 uM KAM = 0,-0.01554
same,1 uM KAM,FAM20B; relative to 0 uM KAM = 0,-0.05098
same,10 uM KAM,FAM20B; relative to 0 uM KAM = 0,0.1003
